# Measurements from publication PMC6813295, “A tumour-selective cascade activatable self-detained system for drug delivery and cancer imaging” (Nature Communications, 2019).
# Where a SMILES comes first, the peptide text is derived from it. The star is where a group is joined. X1 = CC1(C)C(=CC=C2CCCC(C=CC3=[N+](CCCCCC(=O)O)c4ccccc4C3(C)C)=C2*)N(CCCCCC(=O)O)c2ccccc21
# Assays:
# [1] = molecular target: T1, recombinant human caspase-3 (Homo sapiens, UniProt P42574); test: Caspase-3 cleavage (HPLC) and induced self-assembly (TEM) in HEPES buffer; format: biochemical; conditions: caspase-3 2 h, substrate-to-enzyme ratio 1 μM/U, HEPES buffer 50 mM pH 7.4, TEM
# T1 construct: purchased Sigma-Aldrich Chemical Co
# T1 sequence (P42574 29-175 limits assumed): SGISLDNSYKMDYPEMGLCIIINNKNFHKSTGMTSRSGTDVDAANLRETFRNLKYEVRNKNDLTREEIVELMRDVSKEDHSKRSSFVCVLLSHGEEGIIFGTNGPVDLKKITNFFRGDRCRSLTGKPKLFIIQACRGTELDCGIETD
# T1 sequence (P42574 176-277 limits assumed): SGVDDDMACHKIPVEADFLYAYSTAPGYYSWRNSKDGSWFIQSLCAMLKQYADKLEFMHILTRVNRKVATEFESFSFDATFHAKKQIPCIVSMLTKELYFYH
# Description: Fig. 2 The structure conformations and self-assembly properties of molecule 1 in aqueous solution. a Illustration of the self-assembly strategy of molecule 1. b CD spectra of molecule 1 and molecule 4 in deionized water at a concentration of 1 μM. c FTIR spectra of molecule 1 in a monomeric state and molecule 4 in a fibrous assembled state. The arrows identify the typical characteristic peaks of the antiparallel β-sheet structure. d TEM image of self-assembled β-sheet nanofibrils of molecule 1 after treatment with caspase-3 (substrate-to-enzyme ratio of 1 μM/U) in HEPES buffer (50 mM, pH 7.4) for 2 h. The manual measurement of the nanofibril diameter is shown in the zoomed image, and the computational simulation result for the length of molecule 4 is inserted. e WAXS and computational simulation results of the β-sheet self-assemblies (molecule 4) identified the β-sheet and laminate spacing of the structures. f The concentration-dependent CD spectra of molecule 4 in the concentration range of 0.5–10 μM. g Time-dependent TEM images of molecule 4 from 10 min to 12 h for monitoring the growth process of the nanofibrous structures. h Temperature-dependent CD intensity changes at 220 nm of molecules 1 and 4 with a heating rate of 1 °C/min and an equilibrium period of 30 s to reveal the self-assembly mechanisms. Scale bar: 100 nm […]
# H460 and 293T cells = test: Confocal imaging of accumulation and retention in cells, H460 versus 293T; format: cell-based, human; conditions: 50 μM for 1 h, washed, at 6 h (maximum difference), cytoplasm, n = 15
# Description: Fig. 3 Recognition and self-assembly of molecule 1 in cells. a Western blots of XIAP expression in H460 and 293T cells. b Confocal images of H460 cells treated with or without energy-dependent inhibitor (oligomycin A, 20 μM) for 1 h, and followed by washing with PBS and treated with the molecule 1 (50 μM) for 1 h. c Statistical analysis of average fluorescence intensities in the cytoplasm of H460 cells from confocal images. Data are presented as the mean ± s.d. (n = 100). ***p < 0.001, p values were performed with one-way ANOVA followed by post hoc Tukey’s test for the indicated comparison. d Confocal images of time-dependent monitoring of H460 and 293T cells treated with the molecule 1 (50 μM) for 1 h followed by washing with PBS and replacing the medium and a further incubation up to 48 h. e Statistical analysis of average fluorescence intensities in the cytoplasm of H460 and 293T cells from confocal images with a timescale range of 1–48 h. Data are presented as the mean ± s.d. […] Finally, incubate up to 6 h and imaging by confocal microscope. g Schematic diagram illustrates the process of NBD fluorescence illumination. h Confocal images of H460 cells treatment with molecule 1-NBD (50 μM) for 1 h. i TEM images of ultrathin section of H460 cells treated with molecule I-1 (50 μM) and without the molecule I-1 for up to 12 h. […]
structure (smiles),measurement,setting,value
CC[C@H](C)[C@H](NC(=O)[C@@H]1CCCN1C(=O)[C@@H](NC(=O)[C@H](C)N)C(C)C)C(=O)N[C@@H](C)C(=O)N[C@@H](CCC(N)=O)C(=O)N[C@@H](CCCCN)C(=O)N[C@@H](CC(=O)O)C(=O)N[C@@H](CCC(=O)O)C(=O)N[C@H](C(=O)N[C@@H](CC(=O)O)C(=O)N[C@@H](CCCCN)C(=O)N[C@@H](CC(C)C)C(=O)N[C@H](C(=O)N[C@@H](Cc1ccccc1)C(=O)N[C@@H](Cc1ccccc1)C(=O)N[C@@H](C)C(=O)N[C@@H](CCC(=O)O)C(=O)N[C@@H](CSC1=C(C=CC2=[N+](CCCCCC(=O)O)c3ccccc3C2(C)C)CCCC1=CC=C1N(CCCCCC(=O)O)c2ccccc2C1(C)C)C(=O)NCC(=O)O)C(C)C)C(C)C [molecule 1] (H-AVPIAQKDEVDKLVFFAEC(X1)G-OH),diameter of nanofibrils after incubation with caspase-3,[1],approximately 5.8 ± 0.6 nm
same,fluorescent intensity in H460 cells relative to 293T cells,H460 and 293T cells,fivefold higher
